Measurements reported in the supplement of paper PMC10307832.

Assays:
Test in all cases: relative viability (nuclei count vs DMSO), 5 days (fraction); higher = more cells survive
Doxorubicin + OSI-027 = compound: COc1cccc2c1C(=O)c1c(O)c3c(c(O)c1C2=O)C[C@@](O)(C(=O)CO)C[C@@H]3O[C@H]1C[C@H](N)[C@H](O)[C@H](C)O1 [Doxorubicin] + COc1cccc2cc(-c3nc([C@H]4CC[C@H](C(=O)O)CC4)n4ncnc(N)c34)[nH]c12 [OSI-027] (partner 0.5 µM)
Procedure, shortened: (§1)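 Cells from lung cancer lines were seeded into 1536-well plates and, one day later, dosed by pin tool. Treatments were either a single drug or a fixed dose of an anchor drug with five library-drug doses (not always all listed) in √10 steps. After 5 days, nuclei were stained in a one-step fixation (final 0.05% Triton X-100, 1% formaldehyde, 1 ug/ml Hoechst) and counted on 4× images, and relative viability is the treated-to-vehicle nuclei ratio, as the median of duplicate plates.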

BAY61-3606 + OSI-027 = compound: COC1=C(C=C(C=C1)C2=CC3=NC=CN3C(=N2)NC4=C(C=CC=N4)C(=O)N)OC [BAY61-3606] + COc1cccc2cc(-c3nc([C@H]4CC[C@H](C(=O)O)CC4)n4ncnc(N)c34)[nH]c12 [OSI-027] (partner 0.5 µM)
Procedure, shortened: as §1

BAY61-3606 + Crizotinib = compound: COC1=C(C=C(C=C1)C2=CC3=NC=CN3C(=N2)NC4=C(C=CC=N4)C(=O)N)OC [BAY61-3606] + C[C@@H](Oc1cc(-c2cnn(C3CCNCC3)c2)cnc1N)c1c(Cl)ccc(F)c1Cl [Crizotinib] (partner 1 µM)
Procedure, shortened: as §1

BAY61-3606 + Decitabine = compound: COC1=C(C=C(C=C1)C2=CC3=NC=CN3C(=N2)NC4=C(C=CC=N4)C(=O)N)OC [BAY61-3606] + Nc1ncn([C@H]2C[C@H](O)[C@@H](CO)O2)c(=O)n1 [Decitabine] (partner 2 µM)
Procedure, shortened: as §1

Cell Line	relative viability (Doxorubicin + OSI-027; first compound 0.001 µM)	relative viability (Doxorubicin + OSI-027; first compound 0.003162 µM)	relative viability (Doxorubicin + OSI-027; first compound 0.01 µM)	relative viability (Doxorubicin + OSI-027; first compound 0.03162 µM)	relative viability (Doxorubicin + OSI-027; first compound 0.1 µM)	relative viability (BAY61-3606 + OSI-027; first compound 0.02 µM)	relative viability (BAY61-3606 + OSI-027; first compound 0.06325 µM)	relative viability (BAY61-3606 + OSI-027; first compound 0.2 µM)	relative viability (BAY61-3606 + OSI-027; first compound 0.6325 µM)	relative viability (BAY61-3606 + OSI-027; first compound 2 µM)	relative viability (BAY61-3606 + Crizotinib; first compound 0.02 µM)	relative viability (BAY61-3606 + Crizotinib; first compound 0.06325 µM)	relative viability (BAY61-3606 + Crizotinib; first compound 0.2 µM)	relative viability (BAY61-3606 + Crizotinib; first compound 0.6325 µM)	relative viability (BAY61-3606 + Crizotinib; first compound 2 µM)	relative viability (BAY61-3606 + Decitabine; first compound 0.02 µM)	relative viability (BAY61-3606 + Decitabine; first compound 0.06325 µM)	relative viability (BAY61-3606 + Decitabine; first compound 0.2 µM)	relative viability (BAY61-3606 + Decitabine; first compound 0.6325 µM)	relative viability (BAY61-3606 + Decitabine; first compound 2 µM)
NCI-H2126	0.538	0.701	0.642	0.662	0.651	0.729	0.616	0.751	0.695	0.655	1.06	1.01	1	0.973	0.893	0.631	0.606	0.583	0.623	0.555
LCLC-103H	0.482	0.436	0.516	0.405	0.454	0.472	0.434	0.478	0.425	0.439	1.07	0.997	1.02	1.08	1.02	0.773	0.707	0.75	0.748	0.773
NCI-H1975	0.637	0.715	0.685	0.497	0.256	0.797	0.756	0.692	0.635	0.333	0.921	0.947	0.907	0.888	0.585	0.394	0.416	0.438	0.421	0.271
NCI-H1944	0.317	0.46	0.473	0.358	0.366	0.403	0.377	0.363	0.373	0.352	1.08	1.04	0.912	1.07	0.637	0.408	0.466	0.424	0.434	0.327
NCI-H2085	0.786	0.784	0.667	0.679	0.589	0.868	0.901	0.711	0.769	0.53	0.858	0.882	0.87	0.863	0.702	0.531	0.528	0.555	0.531	0.53
COR-L 105	0.71	0.623	0.556	0.428	0.34	0.843	0.645	0.726	0.704	0.468	0.762	0.569	0.674	0.541	0.421	0.764	0.672	0.543	0.63	0.475
NCI-H23		0.664	0.694	0.537	0.506	0.629	0.72	0.442	0.561	0.512	0.53	0.283	0.505	0.486	0.264	0.393	0.329	0.363	0.346	0.383
PC-14	0.683	1.14	0.865	0.161	0.0612	0.786	0.787	0.746	1.24	0.522	0.855	0.803	0.865	0.974	0.757		0.244	0.246	0.203	0.226
NCI-H2087		0.702	0.414	0.403	0.269	0.47	0.577	0.557	0.555	0.417	0.585	0.931	0.818	0.863	0.619	0.352	0.291	0.295	0.269	0.229
NCI-H1755	0.631	0.711	0.747	0.721	0.704	0.743	0.657	0.701	0.712	0.671	0.787	0.786	0.839	0.982	0.721	0.671	0.666	0.656	0.673	0.773
EMC-BAC-2	0.5	0.353	0.379	0.239	0.197	0.391	0.391	0.356	0.363	0.318	0.775	0.696	0.755	0.817	0.573	1.07	1.06	1.04	1.19	0.986
NCI-H2009	0.634	0.687	0.568	0.632	0.402	0.754	0.686	0.681	0.597	0.348	1.06	1.12	1.01	1.08	0.921	0.368	0.359	0.352	0.365	0.415
NCI-H661	0.829	0.639	0.625	0.46	0.291	0.707	0.742	0.734	0.699	0.505	0.914	0.806		0.984	0.957	0.594	0.546	0.546	0.573	0.534
NCI-H838	0.421	0.429	0.387	0.39	0.328	0.456	0.36	0.429	0.411	0.298	0.82	0.661	0.814	0.866	0.398	0.448	0.508	0.47	0.454	0.393
NCI-H1915	0.532	0.674	0.667	0.628	0.659	0.623	0.632	0.571	0.662	0.443	0.899	0.914	0.857	0.868	0.707	0.258	0.261	0.265	0.253	0.23
NCI-H441		0.524	0.445	0.261	0.279	0.587	0.713	0.428	0.557	0.313	0.668	0.788	0.833	0.771	0.414	0.249	0.223	0.242	0.256	0.253
